# Source: PubChem BioAssay AID212 (DTP/NCI, 2004)
# Values joined by “and” are separate entries in the source; they are usually repeats but may differ in a detail not shown here. Identical values can stand only once. Results filed as inconclusive are left out.
# Tested on: BDF1 mice, colon carcinoma 38 sc, T/C %
# Test: NCI In Vivo Anticancer Drug Screen. Data for tumor model Colon Carcinoma 38 (subcutaneous) in B6D2F1 (BDF1) mice
# Conditions: endpoint: median tumor weight (est.), higher = larger tumour
# Outline: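 Ratio of survival or tumor size, compound-treated animals relative to vehicle controls, in tumor-bearing mice.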
# [1] = dose: 12.5 mg/kg/injection, schedule: Q07DX002 (ip), vehicle: water
# [2] = dose: 25.0 mg/kg/injection, schedule: Q07DX002 (ip), vehicle: water
# [3] = dose: 25.0 mg/kg/injection, schedule: Q07DX002 (ip), vehicle: saline with Tween-80
# [4] = dose: 100.0 mg/kg/injection, schedule: Q07DX002 (ip), vehicle: saline with Tween-80
compound,measurement,setting,value
Nc1nc2nc[nH]c2c(=O)[nH]1,T/C,"dose: 100.0 mg/kg/injection, schedule: Q07DX002 (ip), vehicle: suspension in saline",90 % of control
same,T/C,"dose: 200.0 mg/kg/injection, schedule: Q07DX002 (ip), vehicle: suspension in saline",83 % of control
NC(=O)/C=C/c1c[nH]c2nccnc12,T/C,"dose: 6.25 mg/kg/injection, schedule: Q07DX002 (ip), vehicle: water",59 % of control
same,T/C,[1],97 % of control
same,T/C,[2],116 % of control
same,T/C,"dose: 100.0 mg/kg/injection, schedule: Q07DX002 (ip), vehicle: water",94 % of control
COCC(O)Cn1ccnc1[N+](=O)[O-] (stereo not given),T/C,"dose: 12.5 mg/kg/injection, schedule: Q07DX003 (ip), vehicle: water",85 % of control
same,T/C,"dose: 25.0 mg/kg/injection, schedule: Q07DX003 (ip), vehicle: water",90 % of control
same,T/C,"dose: 50.0 mg/kg/injection, schedule: Q07DX003 (ip), vehicle: water",100 % of control
same,T/C,"dose: 100.0 mg/kg/injection, schedule: Q07DX003 (ip), vehicle: water",118 % of control
same,T/C,"dose: 200.0 mg/kg/injection, schedule: Q07DX003 (ip), vehicle: water",72 % of control
same,T/C,"dose: 400.0 mg/kg/injection, schedule: Q07DX003 (ip), vehicle: water",86 % of control
NC1=NC(O)C=C1 (stereo not given),T/C,"dose: 7.5 mg/kg/injection, schedule: Q07DX002 (ip), vehicle: saline",90 % of control
same,T/C,"dose: 15.0 mg/kg/injection, schedule: Q07DX002 (ip), vehicle: saline",103 % of control
same,T/C,"dose: 30.0 mg/kg/injection, schedule: Q07DX002 (ip), vehicle: saline",100 % of control
same,T/C,"dose: 60.0 mg/kg/injection, schedule: Q07DX002 (ip), vehicle: saline",87 % of control
CSc1ncc2ncn(C3OC(CO)C(O)C3O)c2n1 (stereo not given),T/C,"dose: 25.0 mg/kg/injection, schedule: Q07DX002 (ip), vehicle: Klucel (hydroxypropylcellulose) (HPC)",194 % of control
same,T/C,"dose: 400.0 mg/kg/injection, schedule: Q07DX002 (ip), vehicle: Klucel (hydroxypropylcellulose) (HPC)",56 % of control
CC(C)[NH-].CC(C)[NH-].O.O.[Cl][Pt+2][Cl],T/C,"dose: 3.12 mg/kg/injection, schedule: Q07DX003 (ip), vehicle: dextrose",90 % of control
same,T/C,"dose: 6.25 mg/kg/injection, schedule: Q07DX002 (ip), vehicle: dextrose",41 % of control
same,T/C,"dose: 12.5 mg/kg/injection, schedule: Q07DX002 (ip), vehicle: dextrose",81 % of control
same,T/C,"dose: 25.0 mg/kg/injection, schedule: Q07DX002 (ip), vehicle: dextrose",39 % of control
same,T/C,"dose: 25.0 mg/kg/injection, schedule: Q07DX003 (ip), vehicle: dextrose",52 % of control
CCN1/C(=C/C=C/C=C/c2sc3ccccc3[n+]2CC)Sc2ccccc21,T/C,"dose: 0.03 mg/kg/injection, schedule: Q07DX002 (ip), vehicle: saline",151 % of control
same,T/C,"dose: 0.03 mg/kg/injection, schedule: Q07DX002 (ip), vehicle: suspension in saline",59 % of control
same,T/C,"dose: 0.06 mg/kg/injection, schedule: Q07DX002 (ip), vehicle: saline",167 % of control
same,T/C,"dose: 0.06 mg/kg/injection, schedule: Q07DX002 (ip), vehicle: suspension in saline",104 % of control
same,T/C,"dose: 0.12 mg/kg/injection, schedule: Q07DX002 (ip), vehicle: saline",122 % of control
same,T/C,"dose: 0.12 mg/kg/injection, schedule: Q07DX002 (ip), vehicle: suspension in saline",100 % of control
same,T/C,"dose: 0.25 mg/kg/injection, schedule: Q07DX002 (ip), vehicle: suspension in saline",104 % of control
same,T/C,"dose: 0.5 mg/kg/injection, schedule: Q07DX002 (ip), vehicle: saline",162 % of control
same,T/C,"dose: 0.5 mg/kg/injection, schedule: Q07DX002 (ip), vehicle: suspension in saline",109 % of control
same,T/C,"dose: 1.0 mg/kg/injection, schedule: Q07DX002 (ip), vehicle: saline",197 % of control
COc1cccc2c1C(=O)c1c(O)c3c(c(O)c1C2=O)C[C@@](O)(/C(CO)=N/NC(=O)c1ccc(Cl)c(Cl)c1)C[C@@H]3OC1CC(N)C(O)C(C)O1 (stereo not given in full),T/C,"dose: 1.5 mg/kg/injection, schedule: Q07DX002 (ip), vehicle: saline",88 % of control
same,T/C,"dose: 3.0 mg/kg/injection, schedule: Q07DX002 (ip), vehicle: saline",115 % of control
same,T/C,"dose: 6.0 mg/kg/injection, schedule: Q07DX002 (ip), vehicle: saline",80 % of control
same,T/C,"dose: 12.0 mg/kg/injection, schedule: Q07DX002 (ip), vehicle: saline",73 % of control
same,T/C,"dose: 24.0 mg/kg/injection, schedule: Q07DX002 (ip), vehicle: saline",46 % of control
same,T/C,"dose: 48.0 mg/kg/injection, schedule: Q07DX002 (ip), vehicle: saline",48 % of control
CC(C)NC(=O)OCc1c(COC(=O)NC(C)C)c(-c2ccc(Cl)c(Cl)c2)n2c1CCC2,T/C,"dose: 12.5 mg/kg/injection, schedule: Q07DX002 (ip), vehicle: distilled water + Tween-80",82 % of control and 99 % of control
same,T/C,"dose: 25.0 mg/kg/injection, schedule: Q07DX002 (ip), vehicle: distilled water + Tween-80",114 % of control and 94 % of control and 107 % of control
same,T/C,"dose: 50.0 mg/kg/injection, schedule: Q07DX002 (ip), vehicle: distilled water + Tween-80",53 % of control and 67 % of control
Cc1cc(O)c2c(c1O)C(=O)c1cccc(O)c1C2=O,T/C,"dose: 0.18 mg/kg/injection, schedule: Q07DX002 (ip), vehicle: Klucel (hydroxypropylcellulose) (HPC)",86 % of control
same,T/C,"dose: 0.37 mg/kg/injection, schedule: Q07DX002 (ip), vehicle: Klucel (hydroxypropylcellulose) (HPC)",60 % of control
same,T/C,"dose: 0.75 mg/kg/injection, schedule: Q07DX002 (ip), vehicle: Klucel (hydroxypropylcellulose) (HPC)",59 % of control
same,T/C,"dose: 1.5 mg/kg/injection, schedule: Q07DX002 (ip), vehicle: Klucel (hydroxypropylcellulose) (HPC)",110 % of control
O=c1nc(Oc2ccccc2)nc2ncccn12,T/C,"dose: 12.5 mg/kg/injection, schedule: Q07DX002 (ip), vehicle: saline with Tween-80",82 % of control
same,T/C,[3],94 % of control
same,T/C,[4],74 % of control
O=NN(CCCl)C(=O)NCCO,T/C,"dose: 3.12 mg/kg/injection, schedule: Q07DX002 (ip), vehicle: water",75 % of control
same,T/C,[1],18 % of control and 34 % of control
same,T/C,[2],14 % of control
O=c1[nH]c(=O)n([C@H]2CCCO2)cc1F,T/C,"dose: 40.0 mg/kg/injection, schedule: Q07DX003 (ip), vehicle: Klucel (hydroxypropylcellulose) (HPC)",166 % of control
same,T/C,"dose: 80.0 mg/kg/injection, schedule: Q07DX003 (ip), vehicle: Klucel (hydroxypropylcellulose) (HPC)",116 % of control
same,T/C,"dose: 160.0 mg/kg/injection, schedule: Q07DX003 (ip), vehicle: Klucel (hydroxypropylcellulose) (HPC)",57 % of control
same,T/C,"dose: 320.0 mg/kg/injection, schedule: Q07DX003 (ip), vehicle: Klucel (hydroxypropylcellulose) (HPC)",25 % of control
NCC1CCC(C(=O)O)CC1 (stereo not given),T/C,[3],83 % of control
same,T/C,"dose: 50.0 mg/kg/injection, schedule: Q07DX002 (ip), vehicle: saline with Tween-80",104 % of control
same,T/C,[4],99 % of control
same,T/C,"dose: 200.0 mg/kg/injection, schedule: Q07DX002 (ip), vehicle: saline with Tween-80",102 % of control
CCC[CH2][Hg][Cl],T/C,"dose: 0.62 mg/kg/injection, schedule: Q07DX002 (ip), vehicle: Klucel (hydroxypropylcellulose) (HPC)",99 % of control
same,T/C,"dose: 2.5 mg/kg/injection, schedule: Q07DX002 (ip), vehicle: Klucel (hydroxypropylcellulose) (HPC)",92 % of control
same,T/C,"dose: 5.0 mg/kg/injection, schedule: Q07DX002 (ip), vehicle: Klucel (hydroxypropylcellulose) (HPC)",105 % of control
same,T/C,"dose: 20.0 mg/kg/injection, schedule: Q07DX002 (ip), vehicle: Klucel (hydroxypropylcellulose) (HPC)",113 % of control
CN=C(N)N/N=C(\C)c1ccc2c(c1)Cc1cc(/C(C)=N/NC(N)=NC)ccc1-2,T/C,"dose: 0.75 mg/kg/injection, schedule: Q07DX002 (ip), vehicle: saline with Tween-80",104 % of control
same,T/C,"dose: 3.0 mg/kg/injection, schedule: Q07DX002 (ip), vehicle: saline with Tween-80",115 % of control
C[N+](C)(C)c1ncnc2nc[nH]c12,T/C,"dose: 25.0 mg/kg/injection, schedule: Q07DX002 (ip), vehicle: saline",83 % of control
same,T/C,"dose: 50.0 mg/kg/injection, schedule: Q07DX002 (ip), vehicle: saline",77 % of control and 98 % of control
same,T/C,"dose: 100.0 mg/kg/injection, schedule: Q07DX002 (ip), vehicle: saline",96 % of control and 100 % of control
same,T/C,"dose: 200.0 mg/kg/injection, schedule: Q07DX002 (ip), vehicle: saline",75 % of control and 85 % of control
